This note sets out measurements from PMC9031908 (RSC Advances, 2021).

Where two headings read alike, the source gives them in different places.

In series [1] the target is 5-HT2A receptor (Rattus norvegicus, UniProt P14842). Nature of the series: biochemical. Type of series: binding.
The target in series [2] is D2 receptor (Rattus norvegicus, UniProt P61169). Nature of the series: biochemical. Type of series: binding.
Series [3] has as its target H3 receptor (Rattus norvegicus, UniProt Q9QYN8). Type of series: binding.
The target of series [4] is T1, 5-HT6 receptor (Homo sapiens, UniProt P50406). Nature of the series: biochemical. Type of series: binding.
Series [5] deals with T2, 5-HT1A receptor (Rattus norvegicus, UniProt P19327).
T2 sequence (P19327 1-422): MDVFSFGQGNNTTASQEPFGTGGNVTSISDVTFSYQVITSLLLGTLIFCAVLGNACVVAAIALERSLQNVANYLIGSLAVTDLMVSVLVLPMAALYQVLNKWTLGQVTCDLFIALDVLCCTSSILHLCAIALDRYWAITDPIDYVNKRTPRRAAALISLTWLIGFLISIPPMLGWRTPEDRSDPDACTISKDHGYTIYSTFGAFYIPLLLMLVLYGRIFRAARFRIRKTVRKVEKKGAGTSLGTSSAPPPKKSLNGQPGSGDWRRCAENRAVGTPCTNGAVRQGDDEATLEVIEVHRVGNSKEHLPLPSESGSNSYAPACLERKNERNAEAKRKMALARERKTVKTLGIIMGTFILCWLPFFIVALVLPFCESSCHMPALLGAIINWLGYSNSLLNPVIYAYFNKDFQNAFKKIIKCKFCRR
Nature of the series: biochemical. Type of series: binding.

Series [6] concerns the target T3, 5-HT2C receptor (Rattus norvegicus, UniProt P08909).
T3 sequence (P08909 33-460): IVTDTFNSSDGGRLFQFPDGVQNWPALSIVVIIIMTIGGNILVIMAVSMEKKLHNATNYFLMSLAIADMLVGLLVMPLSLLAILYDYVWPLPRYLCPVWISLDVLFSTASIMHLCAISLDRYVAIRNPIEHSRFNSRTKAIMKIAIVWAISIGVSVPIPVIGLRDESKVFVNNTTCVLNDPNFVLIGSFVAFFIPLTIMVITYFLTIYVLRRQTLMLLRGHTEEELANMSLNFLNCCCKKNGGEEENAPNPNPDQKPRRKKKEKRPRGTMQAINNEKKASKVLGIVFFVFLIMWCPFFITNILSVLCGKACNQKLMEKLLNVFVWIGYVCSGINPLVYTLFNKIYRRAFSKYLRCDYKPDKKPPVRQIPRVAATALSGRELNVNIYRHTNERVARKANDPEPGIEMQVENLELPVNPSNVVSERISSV
Nature of the series: biochemical.

Series [7] relates to mice. Nature of the series: Catalepsy test. To be noted: po. Type of series: in vivo.
Series [8] has as its target T4, 5-HT1A receptor (Homo sapiens, UniProt P08908).
T4 sequence (P08908 1-422): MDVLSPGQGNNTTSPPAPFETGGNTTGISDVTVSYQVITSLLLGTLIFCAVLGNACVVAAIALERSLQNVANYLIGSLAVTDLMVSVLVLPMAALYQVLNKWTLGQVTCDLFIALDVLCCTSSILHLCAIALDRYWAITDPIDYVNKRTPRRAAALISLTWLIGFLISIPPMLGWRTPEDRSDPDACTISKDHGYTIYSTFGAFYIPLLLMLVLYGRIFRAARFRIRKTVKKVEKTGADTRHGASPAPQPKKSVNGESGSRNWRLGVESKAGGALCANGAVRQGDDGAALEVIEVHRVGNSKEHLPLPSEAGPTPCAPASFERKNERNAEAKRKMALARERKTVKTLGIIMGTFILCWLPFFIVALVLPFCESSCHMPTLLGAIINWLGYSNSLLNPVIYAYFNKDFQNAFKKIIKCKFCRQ
Nature of the series: cell-based.

The subject of series [9] is rats. To be noted: oral.
Series [10] addresses α1 receptor. The following applies: read-out: Receptor affinity Ki ± SEM, α1; three experiments, mean ± SEM.
Series [11] has as its system mice. Nature of the series: Apomorphine-induced climbing. The following applies: po. Type of series: in vivo.
The target in series [12] is T1, 5-HT6 receptor. Nature of the series: cell-based.
Series [13] has as its target H1 receptor (Cavia porcellus, UniProt P31389). Nature of the series: biochemical.
For series [14], the system named is mice. Nature of the series: MK-801-induced hyperactivity. To be noted: po.
For series [15], the system named is mice. Nature of the series: Weight gain after 28 days of administration. Type of series: in vivo. To be noted: oral.
Series [16] deals with hH3R (Homo sapiens, UniProt Q9Y5N1). Nature of the series: H3 functional activity.
For series [17], the target named is 5-HT2A receptor (Homo sapiens, UniProt P28223). Nature of the series: 5-HT2A functional activity. Type of series: cell-based.
For series [18], the target named is D2 receptor (Homo sapiens, UniProt P14416). Nature of the series: cell-based.
Series [19] relates to mice. Nature of the series: Acute toxicity. To be noted: oral, 24 h.
Series [20] relates to mice. Nature of the series: Serum prolactin after 28 days of administration. Type of series: in vivo. The following applies: oral.
The subject of series [21] is rats. Nature of the series: Conditioned avoidance response. The following applies: po. Type of series: in vivo.

H3 receptor, sequence (Q9QYN8 whole entry): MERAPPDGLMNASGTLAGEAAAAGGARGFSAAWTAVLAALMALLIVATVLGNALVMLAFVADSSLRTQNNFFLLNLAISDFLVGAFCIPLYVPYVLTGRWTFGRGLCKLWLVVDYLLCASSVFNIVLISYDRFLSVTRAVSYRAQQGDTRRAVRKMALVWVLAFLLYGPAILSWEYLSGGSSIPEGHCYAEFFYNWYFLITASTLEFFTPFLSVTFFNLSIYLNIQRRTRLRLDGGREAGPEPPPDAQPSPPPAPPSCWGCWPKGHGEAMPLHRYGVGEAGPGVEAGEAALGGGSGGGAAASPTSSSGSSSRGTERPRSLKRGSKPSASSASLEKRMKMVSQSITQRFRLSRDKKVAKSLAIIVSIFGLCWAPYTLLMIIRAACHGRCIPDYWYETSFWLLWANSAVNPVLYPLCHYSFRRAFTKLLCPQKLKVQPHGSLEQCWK
5-HT2A receptor (Rattus norvegicus, UniProt P14842), sequence (P14842 whole entry): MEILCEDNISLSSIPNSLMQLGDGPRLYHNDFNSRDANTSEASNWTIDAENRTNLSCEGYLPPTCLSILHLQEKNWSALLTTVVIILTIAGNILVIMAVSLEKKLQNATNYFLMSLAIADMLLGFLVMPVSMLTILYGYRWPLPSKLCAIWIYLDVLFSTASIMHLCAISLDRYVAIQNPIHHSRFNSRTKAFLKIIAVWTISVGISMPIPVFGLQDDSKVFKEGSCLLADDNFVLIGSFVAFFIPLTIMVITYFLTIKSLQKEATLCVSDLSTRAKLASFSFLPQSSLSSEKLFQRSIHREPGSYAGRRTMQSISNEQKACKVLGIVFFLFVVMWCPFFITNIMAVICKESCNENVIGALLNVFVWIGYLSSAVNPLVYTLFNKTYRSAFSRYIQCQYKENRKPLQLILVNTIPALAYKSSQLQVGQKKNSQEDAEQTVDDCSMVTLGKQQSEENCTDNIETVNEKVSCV
D2 receptor (Rattus norvegicus, UniProt P61169), sequence (P61169 whole entry): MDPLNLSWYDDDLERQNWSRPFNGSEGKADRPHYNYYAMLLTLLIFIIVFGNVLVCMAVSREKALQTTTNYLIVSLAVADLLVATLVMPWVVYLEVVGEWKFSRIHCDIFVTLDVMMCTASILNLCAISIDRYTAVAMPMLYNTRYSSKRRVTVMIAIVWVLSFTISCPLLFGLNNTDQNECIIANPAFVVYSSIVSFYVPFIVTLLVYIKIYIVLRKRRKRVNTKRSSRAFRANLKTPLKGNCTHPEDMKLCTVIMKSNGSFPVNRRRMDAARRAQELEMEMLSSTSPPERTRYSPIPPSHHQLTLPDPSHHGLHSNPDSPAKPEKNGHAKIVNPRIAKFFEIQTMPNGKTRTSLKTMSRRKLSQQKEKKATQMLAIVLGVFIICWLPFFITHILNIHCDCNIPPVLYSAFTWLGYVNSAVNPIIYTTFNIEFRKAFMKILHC
T1 sequence (P50406 whole entry): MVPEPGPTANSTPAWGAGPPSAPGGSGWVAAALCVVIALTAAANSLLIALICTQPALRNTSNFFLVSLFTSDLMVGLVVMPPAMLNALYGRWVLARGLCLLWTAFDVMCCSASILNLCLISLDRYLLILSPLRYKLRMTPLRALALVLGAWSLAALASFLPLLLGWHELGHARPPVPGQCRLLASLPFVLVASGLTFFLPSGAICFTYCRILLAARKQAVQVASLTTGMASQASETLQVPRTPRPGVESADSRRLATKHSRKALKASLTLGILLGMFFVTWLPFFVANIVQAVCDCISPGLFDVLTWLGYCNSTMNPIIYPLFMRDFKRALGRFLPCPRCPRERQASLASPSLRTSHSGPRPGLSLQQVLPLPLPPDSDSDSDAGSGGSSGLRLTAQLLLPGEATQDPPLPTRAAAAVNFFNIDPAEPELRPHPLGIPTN
H1 receptor, sequence (P31389 whole entry): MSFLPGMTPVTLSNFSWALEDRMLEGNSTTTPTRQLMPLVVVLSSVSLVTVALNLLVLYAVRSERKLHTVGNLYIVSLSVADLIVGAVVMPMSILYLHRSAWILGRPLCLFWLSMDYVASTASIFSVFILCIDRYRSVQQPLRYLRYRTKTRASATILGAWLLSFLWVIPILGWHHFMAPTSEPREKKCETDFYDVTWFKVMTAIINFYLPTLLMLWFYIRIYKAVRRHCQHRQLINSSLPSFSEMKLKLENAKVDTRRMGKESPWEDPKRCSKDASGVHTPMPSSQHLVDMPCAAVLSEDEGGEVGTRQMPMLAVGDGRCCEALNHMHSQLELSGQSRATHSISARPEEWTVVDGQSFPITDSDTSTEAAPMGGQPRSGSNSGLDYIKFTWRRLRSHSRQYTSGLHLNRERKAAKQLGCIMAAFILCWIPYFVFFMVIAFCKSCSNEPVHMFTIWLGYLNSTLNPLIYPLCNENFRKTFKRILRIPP
hH3R, sequence (Q9Y5N1 whole entry): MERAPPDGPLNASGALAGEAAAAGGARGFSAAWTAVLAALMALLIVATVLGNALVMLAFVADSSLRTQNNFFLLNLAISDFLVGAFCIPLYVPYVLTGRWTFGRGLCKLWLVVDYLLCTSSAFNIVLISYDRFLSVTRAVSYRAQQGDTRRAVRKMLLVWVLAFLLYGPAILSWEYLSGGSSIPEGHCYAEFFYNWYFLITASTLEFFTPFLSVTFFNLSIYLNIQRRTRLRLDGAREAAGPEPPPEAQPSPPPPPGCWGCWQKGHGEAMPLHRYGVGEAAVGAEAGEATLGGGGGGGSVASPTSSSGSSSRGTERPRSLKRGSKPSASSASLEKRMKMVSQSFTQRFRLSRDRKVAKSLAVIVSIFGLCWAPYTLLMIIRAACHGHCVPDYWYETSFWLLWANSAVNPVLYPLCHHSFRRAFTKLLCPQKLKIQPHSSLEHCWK
5-HT2A receptor (Homo sapiens, UniProt P28223), sequence (P28223 whole entry): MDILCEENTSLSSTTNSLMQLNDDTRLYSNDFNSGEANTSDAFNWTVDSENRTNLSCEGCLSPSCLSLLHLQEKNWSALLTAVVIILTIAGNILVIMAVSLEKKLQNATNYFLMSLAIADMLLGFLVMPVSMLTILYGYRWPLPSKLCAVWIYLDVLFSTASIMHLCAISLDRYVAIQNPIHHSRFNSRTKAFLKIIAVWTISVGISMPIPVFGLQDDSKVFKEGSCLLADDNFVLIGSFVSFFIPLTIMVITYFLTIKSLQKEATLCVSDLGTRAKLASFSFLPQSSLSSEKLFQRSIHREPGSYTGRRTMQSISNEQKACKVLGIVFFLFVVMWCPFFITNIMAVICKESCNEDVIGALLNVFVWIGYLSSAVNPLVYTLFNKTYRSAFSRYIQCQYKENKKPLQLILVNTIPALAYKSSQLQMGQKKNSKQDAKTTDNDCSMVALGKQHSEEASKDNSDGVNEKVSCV
D2 receptor (Homo sapiens, UniProt P14416), sequence (P14416 whole entry): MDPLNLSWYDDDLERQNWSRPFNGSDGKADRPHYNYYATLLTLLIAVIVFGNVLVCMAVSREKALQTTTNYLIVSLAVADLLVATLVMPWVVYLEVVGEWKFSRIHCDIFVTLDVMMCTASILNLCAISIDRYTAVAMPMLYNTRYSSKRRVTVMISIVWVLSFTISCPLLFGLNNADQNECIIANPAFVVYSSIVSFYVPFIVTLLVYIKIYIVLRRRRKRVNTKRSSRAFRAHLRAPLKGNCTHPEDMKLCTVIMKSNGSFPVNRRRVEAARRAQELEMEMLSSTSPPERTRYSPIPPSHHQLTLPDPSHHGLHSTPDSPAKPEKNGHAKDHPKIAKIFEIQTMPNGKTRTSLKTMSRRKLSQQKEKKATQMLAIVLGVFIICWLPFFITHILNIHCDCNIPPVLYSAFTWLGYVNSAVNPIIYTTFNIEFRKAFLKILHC

Consider `Fc1cc(CN2CCCC2)ccc1OCCCN1CCN(c2cccc3sccc23)CC1` [Compound 3c], for which the Ki (commonly the dissociation constant of the complex between target and ligand, obtained from inhibition or displacement) amounted to 259 ± 14 nM in [1]; 100 ± 7 nM in series [2]; 92.9 ± 3.6 nM in series [3]; 383 ± 34.6 nM in series [4]; 155 ± 15.2 nM in series [5].

As to `Fc1cc(OCCCN2CCN(c3cccc4sccc34)CC2)ccc1CN1CCCC1` [Compound 3d], the Ki in [1] was determined as 262 ± 17.5 nM; in series [2], 98.7 ± 6.8 nM; in [3], 54.4 ± 2 nM; in [4], 354 ± 65.8 nM; in series [5], 144 ± 10.4 nM.

Take `Clc1cc(OCCCN2CCN(c3cccc4sccc34)CC2)ccc1CN1CCCC1` [Compound 3f]: the Ki was found to be 268 ± 20.2 nM in series [1]; 120 ± 15 nM in [2]; 75.3 ± 8.5 nM in series [3]; 376 ± 58.3 nM in series [4]; 185 ± 16.3 nM in series [5].

Turning to `COc1cc(CN2CCCC2)ccc1OCCCN1CCN(c2cccc3sccc23)CC1` [Compound 3g], the Ki in [1] was 129 ± 15.1 nM; in series [2], 99.5 ± 8.4 nM; in series [3], 62.5 ± 5 nM; in [4] it was 462 ± 55.7 nM; in series [5] it was 149 ± 11.7 nM.

Turning to `c1cc(N2CCN(CCCOc3ccc(CN4CCCC4)cc3)CC2)c2ccsc2c1` [Compound 3i], the Ki was 186 ± 20.1 nM in [1]; 91.1 ± 4.5 nM in series [2]; 53 ± 6.3 nM in series [3]; 384 ± 51.3 nM in series [4]; 135 ± 10.5 nM in series [5].

On to `Cc1cc(CN2CCCCC2)ccc1OCCCN1CCN(c2cccc3sccc23)CC1` [Compound 3j], for which the Ki in series [1] was 324 ± 27.5 nM; in series [2], 138 ± 30.1 nM; in series [3] it was 85 ± 9.8 nM; in series [4], 385 ± 51 nM; in [5], 305 ± 28.2 nM.

On to `Fc1cc(CN2CCCCC2)ccc1OCCCN1CCN(c2cccc3sccc23)CC1` [Compound 3l], for which the Ki in [1] stood at 175 ± 25.3 nM; in [2], 197 ± 15.5 nM; in [3], 88.4 ± 10.1 nM; in [4], 389 ± 63.2 nM; in series [5], 285 ± 15.7 nM.

As for `Fc1cc(OCCCN2CCN(c3cccc4sccc34)CC2)ccc1CN1CCCCC1` [Compound 3m], the Ki in series [1] amounted to 146 ± 11.5 nM; in series [2], 110 ± 8.9 nM; in series [3], 81.5 ± 6.5 nM; in [4], 365 ± 55.6 nM; in [5], 213 ± 24.3 nM.

Regarding `COc1cc(CN2CCCCC2)ccc1OCCCN1CCN(c2cccc3sccc23)CC1` [Compound 3p], the Ki in [1] came to 198 ± 16.9 nM; in [2] it was 144 ± 15 nM; in [4], 416 ± 81.3 nM; in [5], 229 ± 25.8 nM.

As to `c1cc(N2CCN(CCCOc3ccc(CN4CCOCC4)cc3)CC2)c2ccsc2c1` [Compound 3w], the Ki in series [6] is 572 ± 91.5 nM; in series [10], 406 ± 60.8 nM; in [13], 820 ± 48.7 nM; in series [2], 17.5 ± 1.9 nM; in [3], 12.1 ± 1.5 nM; in [4], 336 ± 65.3 nM. For the same molecule, in series [5], the Ki turned out to be 16.7 ± 1.8 nM. In addition, the “CAT: catalepsy ED50” value in series [7] is 27.5 mg/kg. The half-inhibitory concentration (IC50) (usually the concentration that inhibits the measured activity by half) in series [8] stood at 218 nM; in series [12], 413 nM; in [16] it was 232 nM; in series [17], 142 nM; in [18], 11.6 nM. The “novelty discrimination index (NDI)” value in [9] (0.3 and 1.0 mg kg^−1) is “obvious increase”. Further, in [9] (1.0–10.0 mg kg^−1), the “effect on total exploration time during the acquisition trial” value is on record as “no obvious effect”. In [9] (low dose 0.1 mg kg^−1), the “difference in exploration times for novel and familiar objects, retention trial” value is reported as “no significant difference”. Besides, the “APO: apomorphine-induced climbing ED50” value in series [11] came to 0.28 mg/kg. Also, in series [14], the “MK-801: MK-801-induced hyperactivity ED50” value turned out to be 0.17 mg/kg. Besides, the weight gain result in [15] was “negligible weight gain”.

On to `O=C(CCCN1CCC(O)(c2ccc(Cl)cc2)CC1)c1ccc(F)cc1` [Haloperidol, haloperidol], for which the “CAT: catalepsy ED50” value in [7] was found to be 0.51 mg/kg. Moreover, in series [11], the “APO: apomorphine-induced climbing ED50” value stood at 0.09 mg/kg. Moreover, the LD50 (in general, the dose expected to kill half of the subjects tested) in series [19] turned out to be 21.0 mg/kg. The “MK-801: MK-801-induced hyperactivity ED50” value in [14] was 0.11 mg/kg.

For the molecule `Cc1nc2n(c(=O)c1CCN1CCC(c3noc4cc(F)ccc34)CC1)CCCC2` [Risperidone, risperidone], the figures for the “CAT: catalepsy ED50” value in series [7] and in series [7] (listed as risperidone) were 0.51 mg/kg and 1.15 mg/kg, respectively. The serum prolactin levels result in series [20] is “significant increase”. Besides, the “APO: apomorphine-induced climbing ED50” value in [11] worked out at 0.05 mg/kg. Further, the figures for the “CAR: conditioned avoidance response ED50” value in series [21] and in series [21] (listed as risperidone) were 0.65 mg/kg and 2.1 mg/kg, respectively. This molecule also displayed an LD50 in series [19] of 82.0 mg/kg. Moreover, the “MK-801: MK-801-induced hyperactivity ED50” value in [14] is 0.02 mg/kg. Also, the weight gain entry in [15] is “significant weight gain”.

As to `CCN(C)C(=O)Oc1cccc([C@H](C)N(C)C)c1` [rivastigmine, reference compound], the “novelty discrimination index (NDI)” value in [9] (0.1 and 0.3 mg kg^−1) is given as “obvious increase”. In addition, the “exploration time for novel things vs vehicle, retention trial” value in series [9] (0.1 to 3.0 mg kg^−1) is “longer exploration”.
